According to paper PMC7778589, “Photosensitizer-based multimodal PSMA-targeting ligands for intraoperative detection of prostate cancer” (Theranostics, 2021):
Values belong to the compound of their own block, whether it stands above or below them.

How the values were obtained:
[1] = test system: LS174T-PSMA and LS174T xenografts; assay: Biodistribution of 111In-labeled multimodal ligands; format: in vivo, BALB/c nude mice; conditions: 0.3 nmol, 2 h p.i.
Procedure: Animal experiments were performed in 8-10 weeks old male BALB/c nude mice (Janvier). Animals were housed in individually ventilated cages (Blue line IVC, 4-5 mice per cage) under nonsterile standard conditions with cage enrichment present and free access to chlorophyll-free animal chow (Sniff GmbH) and water. Mice were subcutaneously inoculated with 3.0 x 10^6 LS174T-PSMA cells in the left flank and 1.5 × 10^6 LS174T cells in the right flank, diluted in 200 μL of complete RPMI 1640 medium. Eleven days after tumor cell inoculation when xenografts were approximately 0.1 cm^3, tracers were injected intravenously via the tail vein. The researchers were not blinded for the experimental groups and tumor-bearing mice were block-randomized into groups based on tumor size. All experiments were approved by the institutional Animal Welfare Committee of the Radboud university medical center and were conducted in accordance to the guidelines of the Revised Dutch Act on Animal Experimentation.
Mice were injected intravenously with 10 MBq ^111In-labeled PSMA ligands (0.3 nmol, molar activity 33.3 MBq/nmol) in PBS/0.5% BSA. Two hours post injection, mice were euthanized by CO2/O2-asphyxation and images were acquired with the IVIS fluorescence imaging system (Xenogen VivoVision IVIS Lumina II, Caliper Life Sciences), using an acquisition time of 10 s. Subsequently, µSPECT/CT images were acquired (U-SPECT II, MILabs) with a 1.0 mm diameter pinhole mouse collimator tube [26]. Mice were scanned for 30 min followed by a CT scan (spatial resolution 160 μm, 65 kV, 615 μA) for anatomical reference. µSPECT/CT scans were reconstructed with MILabs reconstruction software, using an ordered-subset expectation maximization algorithm, energy windows 154 - 188 keV and 220-270 keV, 3 iterations, 16 subsets, voxel size of 0.4 mm. SPECT/CT scans were analyzed and maximum intensity projections (MIPs) were created using the Inveon Research Workplace software version 4.1 (Siemens Preclinical Solutions). NIRF images were analyzed using Living Image software version 4.2 (Caliper Life Sciences). Tissues of interest were dissected, weighed and measured for radioactivity in a gamma-counter as described above. In the fluorescence-guided surgery feasibility study, pre-operative imaging was performed to visualize tumor tissue. After white light resection, NIRF imaging was repeated to assess if any remaining tumor was present.

[2] = Lipophilicity, PBS/n-octanol; format: physicochemical; conditions: radiolabeled ligand
Procedure: Tubes were vortexed vigorously for 1 min and centrifuged for 5 min at 201×g for phase separation. The concentration of radioactivity in a defined volume of each layer was measured in a well-type gamma-counter.

In vitro serum stability = format: in vitro ADME, human; conditions: 2 h, 37°C, RP-HPLC
Procedure: (§1) Binding and internalization characteristics of all ligands were compared using LS174T-PSMA and wildtype LS174T cells. Cells were cultured to confluency in 6-wells plates followed by incubation at 37 °C for 2 h in 1 ml binding buffer (RPMI/0.5% BSA) with 50,000 counts per minute (cpm) of ^111In-labeled ligand (0.1-0.25 pmol/well). Nonspecific binding was determined by coincubation with 2-(phosphonomethyl)pentane-1,5-dioic acid (2-PMPA, 21.57 µM). PSMA-specific binding was defined as nonspecific binding subtracted from total binding. To retrieve the membrane-bound fraction, cells were washed with PBS twice and incubated with acid buffer (0.1 M acetic acid, 154 mM NaCl, pH 2.6) for 10 minutes at 0 °C. After incubation, the membrane bound fraction (in acid buffer) was collected, cells were washed, lysed with 0.1 M NaOH and cell lysis (intercellular activity) was collected. Membrane-bound activity and intercellular activity fractions were measured in a gamma-counter (2480 WIZARD^2 Automatic Gamma Counter, PerkinElmer), [25]. Human serum was used to determine the in vitro serum stability of the multimodal ligands (0.8 µg/ml serum, 5 MBq/μg labeling). After incubation for 2 h at 37°C, serum proteins were precipitated by adding a 1:1 (v/v) volume of acetonitrile followed by 5 min of centrifugation at 3220×g. Stability was evaluated by RP-HPLC analysis after 2 h of incubation at 37 °C. […]

[3] = biological target: T1, PSMA-expressing LS174T cells (LS174T-PSMA) (Homo sapiens, UniProt Q04609); assay: Binding and internalization assay with 111In-labeled ligands; format: cell-based; conditions: 2 h 37 °C
T1 construct: expressed in transfected cells; host or cells: LS174T colon carcinoma cells (human), stably transfected with pcDNA3.1-hPSMA
T1 sequence (Q04609 whole entry): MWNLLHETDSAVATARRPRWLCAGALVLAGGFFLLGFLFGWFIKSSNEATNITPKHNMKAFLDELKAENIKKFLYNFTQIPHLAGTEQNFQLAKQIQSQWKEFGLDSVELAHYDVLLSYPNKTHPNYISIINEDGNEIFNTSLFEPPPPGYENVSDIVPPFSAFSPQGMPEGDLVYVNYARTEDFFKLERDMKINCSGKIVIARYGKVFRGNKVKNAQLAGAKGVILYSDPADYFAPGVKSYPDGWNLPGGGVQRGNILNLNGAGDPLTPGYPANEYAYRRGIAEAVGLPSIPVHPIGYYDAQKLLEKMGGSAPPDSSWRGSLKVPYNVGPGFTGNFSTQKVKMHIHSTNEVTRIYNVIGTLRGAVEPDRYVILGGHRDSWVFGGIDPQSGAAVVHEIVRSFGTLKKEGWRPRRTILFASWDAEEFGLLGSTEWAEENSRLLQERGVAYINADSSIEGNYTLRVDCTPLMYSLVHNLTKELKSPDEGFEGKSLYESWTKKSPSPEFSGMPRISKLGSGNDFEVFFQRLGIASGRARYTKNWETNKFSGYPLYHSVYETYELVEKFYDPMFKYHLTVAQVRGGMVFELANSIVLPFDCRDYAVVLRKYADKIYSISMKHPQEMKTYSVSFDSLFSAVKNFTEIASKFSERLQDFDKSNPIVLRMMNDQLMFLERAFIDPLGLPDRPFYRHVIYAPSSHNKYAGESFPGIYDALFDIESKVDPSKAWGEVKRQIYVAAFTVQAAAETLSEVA
Procedure: Cell lines were purchased from the American Type Culture Collection. LS174T colon carcinoma cells were stably transfected with human PSMA using the plasmid pcDNA3.1-hPSMA and cultured in RPMI 1640 medium supplemented with 2 mM glutamine, 10% FCS, and 0.3 mg/ml G418 at 37 °C in a humidified atmosphere with 5% CO2 [5].
Binding and internalization characteristics of all ligands were compared using LS174T-PSMA and wildtype LS174T cells. Cells were cultured to confluency in 6-wells plates followed by incubation at 37 °C for 2 h in 1 ml binding buffer (RPMI/0.5% BSA) with 50,000 counts per minute (cpm) of ^111In-labeled ligand (0.1-0.25 pmol/well). Nonspecific binding was determined by coincubation with 2-(phosphonomethyl)pentane-1,5-dioic acid (2-PMPA, 21.57 µM). PSMA-specific binding was defined as nonspecific binding subtracted from total binding. To retrieve the membrane-bound fraction, cells were washed with PBS twice and incubated with acid buffer (0.1 M acetic acid, 154 mM NaCl, pH 2.6) for 10 minutes at 0 °C. After incubation, the membrane bound fraction (in acid buffer) was collected, cells were washed, lysed with 0.1 M NaOH and cell lysis (intercellular activity) was collected. Membrane-bound activity and intercellular activity fractions were measured in a gamma-counter (2480 WIZARD^2 Automatic Gamma Counter, PerkinElmer), [25]. Human serum was used to determine the in vitro serum stability of the multimodal ligands (0.8 µg/ml serum, 5 MBq/μg labeling). After incubation for 2 h at 37°C, serum proteins were precipitated by adding a 1:1 (v/v) volume of acetonitrile followed by 5 min of centrifugation at 3220×g. Stability was evaluated by RP-HPLC analysis after 2 h of incubation at 37 °C. […] Experimental details are described in the supplementary materials and methods.

[4] = biological target: T2, PSMA-expressing LS174T-PSMA cells (Homo sapiens, UniProt Q04609); assay: Competitive binding assay (IC50); conditions: on ice 2 h
T2 construct: expressed in transfected cells; host or cells: LS174T colon carcinoma cells (human), stably transfected with pcDNA3.1-hPSMA
T2 sequence (Q04609 whole entry): as above
Procedure: as §1, with “After incubation, the membrane bound fraction (in acid buffer) was collected, cells were washed, lysed with 0.1 M NaOH and cell lysis (intercellular activity) was collected.” left out, “Human serum was used to determine the in vitro serum stability of the multimodal ligands (0.8 µg/ml serum, 5 MBq/μg labeling). After incubation for 2 h at 37°C, serum proteins were precipitated by adding a 1:1 (v/v) volume of acetonitrile followed by 5 min of centrifugation at 3220×g.” left out
(§2) Scatchard analysis was performed to determine the dissociation constant (Kd) of the N064 ligand. […] Non-specific binding was determined by coincubation with 1 µM PSMA-617. […] Cell lysis was collected from the plate and the cell-associated activity was measured in a γ-counter. […] To determine PSMA antigen density per cell and the Kd of multimodal ligands, data were analyzed by linear regression using GraphPad Prism software. […]

[5] = biological target: T3, LS174T-PSMA-positive cells (Homo sapiens, UniProt Q04609); assay: Scatchard analysis (Kd); format: binding; conditions: on ice 4 h
T3 construct: expressed in transfected cells; host or cells: LS174T colon carcinoma cells (human), stably transfected with pcDNA3.1-hPSMA
T3 sequence (Q04609 whole entry): as above
Procedure: as §1, with “After incubation, the membrane bound fraction (in acid buffer) was collected, cells were washed, lysed with 0.1 M NaOH and cell lysis (intercellular activity) was collected.” left out, “Human serum was used to determine the in vitro serum stability of the multimodal ligands (0.8 µg/ml serum, 5 MBq/μg labeling). After incubation for 2 h at 37°C, serum proteins were precipitated by adding a 1:1 (v/v) volume of acetonitrile followed by 5 min of centrifugation at 3220×g.” left out
as §2

Adrenals [1]: 0.9 %ID/g
Blood [1]: 0.2 %ID/g
Bone [1]: 0.3 %ID/g
Bone marrow [1]: 0.3 %ID/g
Duodenum [1]: 0.2 %ID/g
Heart [1]: 0.3 %ID/g
Kidney [1]: 59 %ID/g
Liver [1]: 0.5 %ID/g
Lung [1]: 0.4 %ID/g
Muscle [1]: 0.1 %ID/g
Pancreas [1]: 0.2 %ID/g
Prostate [1]: 0.5 %ID/g
Salivary glands [1]: 0.4 %ID/g
Spleen [1]: 1.3 %ID/g
Stomach [1]: 0.3 %ID/g
Tumor+ LS174T-PSMA [1]: 6.5 %ID/g
Tumor- LS174T [1]: 0.4 %ID/g
Tumor/Blood ratio [1]: 41.1
Tumor/Kidney ratio [1]: 0.2
Tumor/Liver ratio [1]: 13.7
Tumor/Muscle ratio [1]: 71.9
Tumor/Negative tumor ratio [1]: 24.1
Tumor/Prostate ratio [1]: 17.2
Tumor/Salivary gland ratio [1]: 21.5
Tumor/Spleen ratio [1]: 5.7
LogD [2]: -2.4 ± 0.15
Stability in human serum (In vitro serum stability): stable
Internalized fraction [3]: 0.9 ± 0.06
Membrane bound fraction [3]: 0.4 ± 0.05
SMILES: C[Si](C)(CCC[N+](CCCS(=O)(=O)O)(CCCS(=O)(=O)O)CCCS(=O)(=O)O)O[Si-2]123(O[Si](C)(C)CCC[N+](CCCS(=O)(=O)O)(CCCS(=O)(=O)O)CCCS(=O)(=O)O)n4c5c6ccccc6c4N=C4c6cccc(OCCCOC(=O)NCCCCCC(=O)NCCCC[C@H](NC(=O)CCC(C(=O)O)N7CCN(CC(=O)O)CCN(CC(=O)O)CCN(CC(=O)O)CC7)C(=O)NCCOCCOCCOCCOCCC(=O)N[C@H](Cc7ccccc7)C(=O)N[C@@H](CCC(=O)O)C(=O)N[C@@H](CCC(=O)O)C(=O)NCCCCCC(=O)NCCCC[C@H](NC(=O)N[C@@H](CCC(=O)O)C(=O)O)C(=O)O)c6C(=[N+]41)N=c1c4ccccc4c(n12)=NC1=[N+]3C(=N5)c2ccccc21.[Na+].[Na+].[Na+].[Na+] (stereo partly shown) [N111]

IC50 [4]: 52.7 nM
Kd [5]: 15 ± 1.1 nM
SMILES: O=C(O)CC[C@H](NC(=O)N[C@@H](CCCCNC(=O)[C@H](Cc1ccc2ccccc2c1)NC(=O)[C@H]1CC[C@H](CNC(=O)CN2CCN(CC(=O)O)CCN(CC(=O)O)CCN(CC(=O)O)CC2)CC1)C(=O)O)C(=O)O [PSMA-617]
